The assay has as its target T1, hSCN3A sodium channels (Homo sapiens, UniProt Q9NY46).
T1 construct: expressed in transfected cells
The assay is described as follows: hSCN3A electrophysiology, Ionworks Quattro automated platform (Table C). Type of assay: cell-based. The conditions noted are these: for inhibition at 3 µM: read-out: SCN3A % INHIB HTS IWQ 3 μM; for inhibition at 10 µM: read-out: SCN3A % INHIB HTS IWQ 10 μM; for SCN3A INHIB INACT DRC EP IWQ EMAX: Emax of dose-response curve, inactivated state; for IC50: read-out: SCN3A IWQ IC-50. The method, then:
Human Embryonic Kidney (HEK) cells were transfected with an hSCN3A construct using lipofectamine reagent (Invitrogen), using standard techniques. […] Clones were screened for expression using the whole-cell voltage-clamp technique.
HEK cells stably transfected with hSCN3A were maintained in DMEM medium supplemented with 10% heat-inactivated fetal bovine serum and 400 μg/ml G418 sulfate in an incubator at 37° C. with a humidified atmosphere of 10% CO2. […] For electrophysiological studies, cells were removed from the culture flask by brief trypsinization and replated at low density onto glass cover slips. Cells were typically used for electrophysiological experiments within 24 to 72 h after plating.
Electrophysiological assays were also conducted using the Ionworks Quattro automated electrophysiological platform (Molecular Devices Corp) (Table C). Intracellular and extracellular solutions were as described above with the following changes, 100 μg/ml amphotericin was added to the intracellular solution to perforate the membrane and allow electrical access to the cells. hSCN3A cells were grown and harvested as for PatchXpress and cells were resuspended in extracellular solution at a concentration of 3-4×10^6 cells/ml. The onboard liquid handling facility of the Ionworks Quattro was used for dispensing cells and application of test compounds. A voltage protocol was then applied that comprised of a voltage step to fully inactivate the sodium channels, followed by a brief hyperpolarized recovery period to allow partial recovery from inactivation for unblocked sodium channels, followed by a test depolarized voltage step to assess magnitude of inhibition by test compound. Compound effect was determined based on current amplitude difference between the pre-compound addition and post-compound addition scans.

The values below come from patent publication US8741934B2, “Inhibitors of ion channels” (Pfizer Limited, priority 2007, dated 2014).

T1 sequence (Q9NY46 whole entry): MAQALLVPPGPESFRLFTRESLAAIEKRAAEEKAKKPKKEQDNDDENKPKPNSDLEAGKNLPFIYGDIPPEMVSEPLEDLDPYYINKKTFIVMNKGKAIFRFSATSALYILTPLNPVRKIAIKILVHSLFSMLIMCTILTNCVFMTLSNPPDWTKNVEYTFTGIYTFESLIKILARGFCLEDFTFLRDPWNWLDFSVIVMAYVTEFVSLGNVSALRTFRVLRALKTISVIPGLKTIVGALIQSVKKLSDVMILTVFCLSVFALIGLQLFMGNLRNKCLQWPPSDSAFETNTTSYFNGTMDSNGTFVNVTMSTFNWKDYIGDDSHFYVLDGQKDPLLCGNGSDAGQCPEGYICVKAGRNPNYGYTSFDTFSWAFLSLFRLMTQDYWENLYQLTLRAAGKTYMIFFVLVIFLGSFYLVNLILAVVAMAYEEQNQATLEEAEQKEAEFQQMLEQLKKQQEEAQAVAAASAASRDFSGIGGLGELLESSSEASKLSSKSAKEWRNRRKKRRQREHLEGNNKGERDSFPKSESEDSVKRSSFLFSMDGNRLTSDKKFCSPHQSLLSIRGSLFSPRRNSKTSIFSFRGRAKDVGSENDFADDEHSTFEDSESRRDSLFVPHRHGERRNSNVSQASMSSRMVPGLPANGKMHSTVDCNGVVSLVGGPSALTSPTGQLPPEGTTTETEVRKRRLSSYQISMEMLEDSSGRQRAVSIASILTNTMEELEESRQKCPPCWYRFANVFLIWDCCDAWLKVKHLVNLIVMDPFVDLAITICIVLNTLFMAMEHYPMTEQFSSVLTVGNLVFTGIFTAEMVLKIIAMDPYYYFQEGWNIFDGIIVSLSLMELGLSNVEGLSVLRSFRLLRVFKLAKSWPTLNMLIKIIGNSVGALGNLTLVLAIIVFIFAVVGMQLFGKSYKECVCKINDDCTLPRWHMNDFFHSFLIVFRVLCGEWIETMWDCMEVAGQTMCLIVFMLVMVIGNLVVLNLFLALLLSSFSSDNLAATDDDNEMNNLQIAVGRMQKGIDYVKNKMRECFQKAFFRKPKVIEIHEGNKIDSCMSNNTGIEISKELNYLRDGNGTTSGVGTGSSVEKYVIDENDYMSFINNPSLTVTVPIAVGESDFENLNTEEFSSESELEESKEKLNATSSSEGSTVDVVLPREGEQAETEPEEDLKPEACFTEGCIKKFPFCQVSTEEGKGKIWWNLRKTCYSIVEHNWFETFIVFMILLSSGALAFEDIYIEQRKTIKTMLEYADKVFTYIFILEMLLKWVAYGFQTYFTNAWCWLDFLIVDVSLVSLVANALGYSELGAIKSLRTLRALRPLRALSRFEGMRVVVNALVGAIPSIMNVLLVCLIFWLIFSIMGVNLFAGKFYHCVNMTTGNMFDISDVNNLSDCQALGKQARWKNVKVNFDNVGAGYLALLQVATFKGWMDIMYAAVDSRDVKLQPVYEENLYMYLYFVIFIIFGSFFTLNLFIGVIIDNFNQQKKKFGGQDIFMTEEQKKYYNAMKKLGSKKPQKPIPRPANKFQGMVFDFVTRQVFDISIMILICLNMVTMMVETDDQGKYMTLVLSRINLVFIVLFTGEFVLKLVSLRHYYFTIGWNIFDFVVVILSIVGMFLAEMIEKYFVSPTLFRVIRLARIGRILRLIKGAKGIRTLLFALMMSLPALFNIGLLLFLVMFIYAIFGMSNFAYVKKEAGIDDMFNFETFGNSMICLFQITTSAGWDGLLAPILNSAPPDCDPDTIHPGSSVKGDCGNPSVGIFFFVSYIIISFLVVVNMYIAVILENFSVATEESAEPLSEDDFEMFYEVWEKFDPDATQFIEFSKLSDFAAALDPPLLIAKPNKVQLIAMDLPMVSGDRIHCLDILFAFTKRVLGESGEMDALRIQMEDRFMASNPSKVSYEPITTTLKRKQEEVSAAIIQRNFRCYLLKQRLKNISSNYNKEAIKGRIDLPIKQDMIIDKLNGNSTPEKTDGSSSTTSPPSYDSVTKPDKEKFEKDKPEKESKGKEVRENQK

For `Cc1cccc(C2(C)CN(C(=O)c3ccc(S(=O)(=O)Nc4nccs4)cc3)CCO2)c1` (stereo not shown) [Example 189, 4-{[2-Methyl-2-(3-methylphenyl)morpholin-4-yl]carbonyl}-N-1,3-thiazol-2-yl-benzenesulfonamide], the inhibition at 3 µM (3 μM compound) is 25.3%. Besides, the inhibition at 10 µM (10 μM compound) was found to be 21%.
The corresponding values for `O=C(c1ccc(S(=O)(=O)Nc2nccs2)cc1)N1CCCCC1CCn1cccn1` (stereo not shown) [Example 190, 4-({2-[2-(1H-pyrazol-1-yl)ethyl]piperidin-1-yl}carbonyl)-N-1,3-thiazol-2-yl-benzenesulfonamide] are 2.77% and -8.21%.
Turning to `O=C1[C@@H]2CC[C@@H]3[C@H]1C(c1ccccc1)N(C(=O)c1ccc(S(=O)(=O)Nc4nccs4)cc1)[C@H]3C2` (stereo partly drawn) [Example 192, 4-{[(3S,3aR,6R,7aS)-8-oxo-2-phenyloctahydro-1H-3,6-methanoindol-1-yl]carbonyl}-N-1,3-thiazol-2-yl-benzenesulfonamide], for the setting “3 μM compound”, the inhibition at 3 µM amounted to 6.18%. Further, the inhibition at 10 µM (10 μM compound) was 26%.
For `O=C(c1ccc(S(=O)(=O)Nc2nccs2)cc1)N1CCCC1Cc1ccccc1` (stereo not shown) [Example 197, 4-[(2-Benzylpyrrolidin-1-yl)carbonyl]-N-1,3-thiazol-2-yl-benzenesulfonamide], in that order: 17.6% and 17.4%.
The corresponding values for `COc1ccc(CC2COCCN(C(=O)c3ccc(S(=O)(=O)Nc4nccs4)cc3)C2)cc1F` (stereo not shown) [Example 199, 4-{[6-(3-Fluoro-4-methoxybenzyl)-1,4-oxazepan-4-yl]carbonyl}-N-1,3-thiazol-2-yl-benzenesulfonamide] are 10.2% and 7.42%.
For `COc1cccc(C2CCCCN2C(=O)c2ccc(S(=O)(=O)Nc3nccs3)cc2)c1` (stereo not shown) [Example 201, 4-{[2-(3-Methoxyphenyl)piperidin-1-yl]carbonyl}-N-1,3-thiazol-2-yl-benzenesulfonamide], in that order: 13.7% and -0.98%.
For the compound `Cc1ccc(C)c(C2CCCN2C(=O)c2ccc(S(=O)(=O)Nc3nccs3)cc2)c1` (stereo not shown) [Example 202, 4-{[2-(2,5-Dimethylphenyl)pyrrolidin-1-yl]carbonyl}-N-1,3-thiazol-2-yl-benzenesulfonamide], the inhibition at 3 µM (3 μM compound) is 15.8%. For the same compound, the inhibition at 10 µM (10 μM compound) was 13.7%.
For `COc1ccc(OC2CCCN(C(=O)c3ccc(S(=O)(=O)Nc4nccs4)cc3)C2)cc1` (stereo not shown) [Example 203, 4-{[3-(4-Methoxyphenoxy)piperidin-1-yl]carbonyl}-N-1,3-thiazol-2-yl-benzenesulfonamide], in that order: 13.1% and 17.7%.
The corresponding values for `Cc1ccccc1O[C@@H]1CCN(C(=O)c2ccc(S(=O)(=O)Nc3nccs3)cc2)C1` [Example 204, 4-{[(3R)-3-(2-methylphenoxy)pyrrolidin-1-yl]carbonyl}-N-1,3-thiazol-2-yl-benzenesulfonamide] are 18.1% and 16.2%.
The corresponding values for `O=C(c1ccc(S(=O)(=O)Nc2nccs2)cc1)N1CCCC1c1ccccc1` (stereo not shown) [Example 205, 4-[(2-Phenylpyrrolidin-1-yl)carbonyl]-N-1,3-thiazol-2-yl-benzenesulfonamide] are 11.3% and 27.3%.
Consider `COc1ccc(CC2CCCN2C(=O)c2ccc(S(=O)(=O)Nc3nccs3)cc2)cc1` (stereo not shown) [Example 206, 4-{[2-(4-Methoxybenzyl)pyrrolidin-1-yl]carbonyl}-N-1,3-thiazol-2-yl-benzenesulfonamide], for which, under “3 μM compound”, the inhibition at 3 µM came out at 4.17%. Also, the inhibition at 10 µM (10 μM compound) was 16.7%.
Take `Cc1ccc(C2CCCCN2C(=O)c2ccc(S(=O)(=O)Nc3nccs3)cc2)cc1` (stereo not drawn) [Example 207, 4-{[2-(4-Methylphenyl)piperidin-l-yl]carbonyl}-N-1,3-thiazol-2-yl-benzenesulfonamide]: the “SCN3A % INHIB HTS IWQ 3 μM” value (3 μM compound) is 27.25%. The “SCN3A % INHIB HTS IWQ 10 μM” value (10 μM compound) is −16.86%.
Turning to `O=C(c1ccc(S(=O)(=O)Nc2nccs2)cc1)N(Cc1ccccc1)[C@@H](CO)c1ccccc1` [Example 208, N-benzyl-N-[(1R)-2-hydroxy-1-phenylethyl]-4-[(1,3-thiazol-2-yl-amino)sulfonyl]benzamide], the inhibition at 3 µM (3 μM compound) stood at 3.57%. The inhibition at 10 µM (10 μM compound) is -14.2%.
For `CCN(C(=O)c1ccc(S(=O)(=O)Nc2nccs2)cc1)C(C)C(=O)c1ccccc1` (stereo not shown) [Example 209, N-ethyl-N-(1-methyl-2-oxo-2-phenylethyl)-4-[(1,3-thiazol-2-yl-amino)sulfonyl]benzamide], in that order: 5.72% and -5.23%.
For `O=C(c1ccc(S(=O)(=O)Nc2nccs2)cc1)N1CCOC(CN2Cc3ccccc3C2=O)C1` (stereo not shown) [Example 210, 4-({2-[(1-Oxo-1,3-dihydro-2H-isoindol-2-yl)methyl]morpholin-4-yl}carbonyl)-N-1,3-thiazol-2-ylbenzenesulfonamide], in that order: 4.03% and 11.9%.
For `O=C(c1ccc(S(=O)(=O)Nc2nccs2)cc1)N1CCCC(OCc2ccccc2)C1` (stereo not shown) [Example 211, 4-{[3-(benzyloxy)piperidin-1-yl]carbonyl}-N-1,3-thiazol-2-yl-benzenesulfonamide], in that order: 2.5% and 10.1%.
Turning to `Cc1nccc(C2CCCN2C(=O)c2ccc(S(=O)(=O)Nc3nccs3)cc2)n1` (stereo not shown) [Example 212, 4-{[2-(2-Methylpyrimidin-4-yl)pyrrolidin-1-yl]carbonyl}-N-1,3-thiazol-2-yl-benzenesulfonamide], where the note is “3 μM compound”, the inhibition at 3 µM is 14.7%. The inhibition at 10 µM (10 μM compound) was -8.45%.
For `O=C(c1ccc(S(=O)(=O)Nc2nccs2)cc1)N(Cc1ccccc1)[C@@H]1CCCC[C@H]1O` [Example 213, N-benzyl-N-[(1R,2R)-2-hydroxycyclohexyl]-4-[(1,3-thiazol-2-yl-amino)sulfonyl]benzamide], in that order: -0.67% and 1.51%.
For `O=C(c1ccc(S(=O)(=O)Nc2nccs2)cc1)N1CCCO[C@H]1Cc1ccccc1` [Example 214, 4-{[(2S)-2-benzyl-1,3-oxazinan-3-yl]carbonyl}-N-1,3-thiazol-2-yl-benzenesulfonamide], in that order: 9.25% and 4.51%.
As to `O=C(c1ccc(S(=O)(=O)Nc2nccs2)cc1)N1CCCC1c1ccccc1Cl` (stereo not shown) [Example 215, 4-{[2-(2-Chlorophenyl)pyrrolidin-1-yl]carbonyl}-N-1,3-thiazol-2-yl-benzenesulfonamide], the “SCN3A INHIB INACT DRC EP IWQ EMAX” value is 64.7 and the IC50 was 8.41 µM. The inhibition at 3 µM (3 μM compound) came to 30.5%. Moreover, the inhibition at 10 µM (10 μM compound) is 51.9%.
With `O=C(c1ccc(S(=O)(=O)Nc2nccs2)cc1)N1CCOCC(Cc2ccc(F)cn2)C1` (stereo not shown) [Example 216, 4-({6-[(5-Fluoropyridin-2-yl)methyl]-1,4-oxazepan-4-yl}carbonyl)-N-1,3-thiazol-2-yl-benzenesulfonamide], the inhibition at 3 µM (3 μM compound) turned out to be 10.8%. Also, the inhibition at 10 µM (10 μM compound) was found to be 6.67%.
`CCN(C(=O)c1ccc(S(=O)(=O)Nc2nccs2)cc1)[C@H](CO)c1ccccc1` [Example 219, N-ethyl-N-[(1S)-2-hydroxy-1-phenylethyl]-4-[(1,3-thiazol-2-yl-amino)sulfonyl]benzamide]: the inhibition at 3 µM (3 μM compound) worked out at 13.1%. The inhibition at 10 µM (10 μM compound) came out at 1.08%.
For `O=C(c1ccc(S(=O)(=O)Nc2nccs2)cc1)N1CCCCC1c1cccc(F)c1` (stereo not shown) [Example 221, 4-{[2-(3-Fluorophenyl)piperidin-1-yl]carbonyl}-N-1,3-thiazol-2-yl-benzenesulfonamide], in that order: 19.9% and 21.8%.
Take `O=C(c1ccc(S(=O)(=O)Nc2nccs2)cc1)N1CCSCC1c1ccc(F)cc1` (stereo not shown) [Example 223, 4-{[3-(4-Fluorophenyl)thiomorpholin-4-yl]carbonyl}-N-1,3-thiazol-2-yl-benzenesulfonamide]: the “SCN3A INHIB INACT DRC EP IWQ EMAX” value is reported as 46.3 and the IC50 amounted to 33 µM. Moreover, the inhibition at 3 µM (3 μM compound) came to 36.9%. Moreover, the inhibition at 10 µM (10 μM compound) was 47.5%.
Regarding `O=C(c1ccc(S(=O)(=O)Nc2nccs2)cc1)N1CCCCC1COc1ccccc1` (stereo not shown) [Example 224, 4-{[2-(Phenoxymethyl)piperidin-1-yl]carbonyl}-N-1,3-thiazol-2-yl-benzenesulfonamide], where the note is “3 μM compound”, the inhibition at 3 µM came to 3.47%. In addition, the inhibition at 10 µM (10 μM compound) turned out to be 9.34%.
For `Cc1cccc(CC2COCCN(C(=O)c3ccc(S(=O)(=O)Nc4nccs4)cc3)C2)n1` (stereo not shown) [Example 225, 4-({6-[(6-Methylpyridin-2-yl)methyl]-1,4-oxazepan-4-yl}carbonyl)-N-1,3-thiazol-2-yl-benzenesulfonamide], where the note is “3 μM compound”, the inhibition at 3 µM came out at 6.08%. Moreover, under “10 μM compound”, the inhibition at 10 µM was -8.14%.
For `O=C(c1ccc(S(=O)(=O)Nc2nccs2)cc1)N(Cc1ccccc1)[C@@H]1CCCC[C@@H]1CO` [Example 226, N-benzyl-N-[(1R,2S)-2-(hydroxymethyl)cyclohexyl]-4-[(1,3-thiazol-2-ylamino)sulfonyl]benzamide], in that order: -1.52% and 13.9%.
